Measured values published in US20040116293A1, “Enhanced herbicide composition” (priority 2002, published 2004).

Tests used:
Xanthi-nc tobacco [1] = assay: Herbicidal activity (phytotoxicity, percent leaf area affected) of foliar sprays on Xanthi-nc tobacco; format: in vivo, Nicotiana tabacum (tobacco)
Source text: (§1) In all examples, deionized ultra-pure water was used in preparing solutions. Spray solutions were used as soon as possible after mixing.
(§2) In all herbicide applications, plants were sprayed with a sufficient volume to insure good coverage, to the point of runoff of the spray solution. […] For all treatments containing both an herbicide and a salicylate or SAR inducer, these materials were mixed and applied in a single spray solution (commonly known as a tank mix). After spraying, plants were moved to the greenhouse and arranged in randomized complete blocks. Plants were evaluated for herbicidal effects (phytotoxicity) after spraying by assessing damage according to percent leaf area affected. All the data were subject to an analysis of variance, and the mean separations were determined with Duncan's multiple range test at α=0.05.

velvetleaf = assay: Herbicidal activity (phytotoxicity, percent leaf area affected) of foliar sprays on velvetleaf; format: in vivo, Abutilon theophrasti (velvetleaf); settings: for Phytotoxicity at 3 days: percent leaf area affected / Phytotoxicity at 5 days: percent leaf area affected / Phytotoxicity at 7 days: percent leaf area affected: alone or + NaSA 800 ppm
Source text: as §1, §2

Xanthi-nc tobacco [2] = assay: Herbicidal activity on Xanthi-nc tobacco at three different light levels; format: in vivo, Nicotiana tabacum (tobacco); settings: for Phytotoxicity at 5 days: percent leaf area affected / Phytotoxicity at 9 days: percent leaf area affected / Phytotoxicity at 13 days: percent leaf area affected: atrazine (Aatrex Nine-O) 250 ppm, NaSA 800 ppm
Source text: as §1, §2

Xanthi-nc tobacco [3] = assay: Herbicidal activity on Xanthi-nc tobacco at three different temperatures; format: in vivo, Nicotiana tabacum (tobacco); settings: for Phytotoxicity at 3 days: percent leaf area affected / Phytotoxicity at 5 days: percent leaf area affected / Phytotoxicity at 7 days: percent leaf area affected / Phytotoxicity at 10 days: percent leaf area affected: atrazine (Aatrex Nine-O) 250 ppm, NaSA 800 ppm
Source text: as §1, §2

[4] = system: corn variety Silver Queen; assay: Foliar sprays on corn variety Silver Queen (crop damage)
Source text: as §1, §2
Atrazine is commonly used against weeds in corn and small grain crops.

[5] = atrazine 100 ppm, alone or + NaSA 1600 ppm
[6] = atrazine 250 ppm, alone or + NaSA 1600 ppm
[7] = atrazine 500 ppm, alone or + NaSA 1600 ppm
[8] = atrazine (Aatrex Nine-O) 50 ppm
[9] = atrazine (Aatrex Nine-O) 100 ppm
[10] = atrazine (Aatrex Nine-O) 250 ppm
[11] = illumination 9.8 μmoles·m^−2·s^−1
[12] = illumination 31.3 μmoles·m^−2·s^−1

Compound: CCNc1nc(Cl)nc(NC(C)C)n1 [Atrazine, 6-chloro-N-ethyl-N′(1-methylethyl)-1,3,5-triazine-2,4-diamine]
- Phytotoxicity at 2 days: percent leaf area affected (Xanthi-nc tobacco [1]; 2 days, atrazine (Aatrex Nine-O) 100 ppm, NaSA 800 ppm, acibenzolar-S-methyl 187 ppm, alone or tank-mixed as labelled): 1 A percent
- Phytotoxicity at 3 days: percent leaf area affected (Xanthi-nc tobacco [1]; atrazine (Aatrex Nine-O) 100 ppm, NaSA 800 ppm, acibenzolar-S-methyl 187 ppm, alone or tank-mixed as labelled): 17 B percent
- Phytotoxicity at 7 days: percent leaf area affected (Xanthi-nc tobacco [1]; 7 days, atrazine (Aatrex Nine-O) 100 ppm, NaSA 800 ppm, acibenzolar-S-methyl 187 ppm, alone or tank-mixed as labelled): 93.9 B percent
- Phytotoxicity at 3 days: percent leaf area affected (Xanthi-nc tobacco [1]; [5]): 1.5 A percent
- Phytotoxicity at 6 days: percent leaf area affected (Xanthi-nc tobacco [1]; [5]): 66.2 C percent
- Phytotoxicity at 3 days: percent leaf area affected (Xanthi-nc tobacco [1]; [6]): 4.3 AB percent
- Phytotoxicity at 6 days: percent leaf area affected (Xanthi-nc tobacco [1]; [6]): 77.5 D percent
- Phytotoxicity at 3 days: percent leaf area affected (Xanthi-nc tobacco [1]; [7]): 9.5 B percent
- Phytotoxicity at 6 days: percent leaf area affected (Xanthi-nc tobacco [1]; [7]): 82.5 DE percent
- Phytotoxicity at 3 days: percent leaf area affected (velvetleaf; [8]): 17.5 B percent
- Phytotoxicity at 5 days: percent leaf area affected (velvetleaf; [8]): 20 B percent
- Phytotoxicity at 7 days: percent leaf area affected (velvetleaf; [8]): 25 B percent
- Phytotoxicity at 3 days: percent leaf area affected (velvetleaf; [9]): 35 C percent
- Phytotoxicity at 5 days: percent leaf area affected (velvetleaf; [9]): 50 D percent
- Phytotoxicity at 7 days: percent leaf area affected (velvetleaf; [9]): 45 C percent
- Phytotoxicity at 3 days: percent leaf area affected (velvetleaf; [10]): 80 E percent
- Phytotoxicity at 5 days: percent leaf area affected (velvetleaf; [10]): 97.5 EF percent
- Phytotoxicity at 7 days: percent leaf area affected (velvetleaf; [10]): 95 D percent
- Phytotoxicity at 5 days: percent leaf area affected (Xanthi-nc tobacco [2]; illumination 0 (Dark)): 0.6 AB percent
- Phytotoxicity at 5 days: percent leaf area affected (Xanthi-nc tobacco [2]; [11]): 0 A percent
- Phytotoxicity at 5 days: percent leaf area affected (Xanthi-nc tobacco [2]; [12]): 1.9 AB percent
- Phytotoxicity at 9 days: percent leaf area affected (Xanthi-nc tobacco [2]; illumination 0 (Dark)): 0.6 A percent
- Phytotoxicity at 9 days: percent leaf area affected (Xanthi-nc tobacco [2]; [11]): 5.3 AB percent
- Phytotoxicity at 9 days: percent leaf area affected (Xanthi-nc tobacco [2]; [12]): 67.2 B percent
- Phytotoxicity at 13 days: percent leaf area affected (Xanthi-nc tobacco [2]; illumination 0 (Dark), crop oil control 35.9): 28.1 A percent
- Phytotoxicity at 13 days: percent leaf area affected (Xanthi-nc tobacco [2]; [11]): 76.5 B percent
- Phytotoxicity at 13 days: percent leaf area affected (Xanthi-nc tobacco [2]; [12]): 100%
- Phytotoxicity at 3 days: percent leaf area affected (Xanthi-nc tobacco [3]; 15 C.): 0 A percent
- Phytotoxicity at 3 days: percent leaf area affected (Xanthi-nc tobacco [3]; 25 C.): 0 A percent
- Phytotoxicity at 3 days: percent leaf area affected (Xanthi-nc tobacco [3]; 35 C.): 11.0 AB percent
- Phytotoxicity at 5 days: percent leaf area affected (Xanthi-nc tobacco [3]; 15 C.): 0 A percent
- Phytotoxicity at 5 days: percent leaf area affected (Xanthi-nc tobacco [3]; 25 C.): 0.6 A percent
- Phytotoxicity at 5 days: percent leaf area affected (Xanthi-nc tobacco [3]; 35 C.): 73.4 C percent
- Phytotoxicity at 7 days: percent leaf area affected (Xanthi-nc tobacco [3]; 15 C.): 5.9 B percent
- Phytotoxicity at 7 days: percent leaf area affected (Xanthi-nc tobacco [3]; 25 C.): 25 C percent
- Phytotoxicity at 7 days: percent leaf area affected (Xanthi-nc tobacco [3]; 35 C.): 97.8 C percent
- Phytotoxicity at 10 days: percent leaf area affected (Xanthi-nc tobacco [3]; 15 C.): 39.1 B percent
- Phytotoxicity at 10 days: percent leaf area affected (Xanthi-nc tobacco [3]; 25 C.): 84.4 B percent
- Phytotoxicity at 10 days: percent leaf area affected (Xanthi-nc tobacco [3]; 35 C.): 100 C percent
- Percent leaf area affected at 3 days ([4]; atrazine (Aatrex Nine-O) 100 ppm, alone or + NaSA 800 ppm): 0 A Percent
- Percent leaf area affected at 3 days ([4]; atrazine (Aatrex Nine-O) 500 ppm, alone or + NaSA 800 ppm): 0 A Percent
- Percent leaf area affected at 3 days ([4]; atrazine (Aatrex Nine-O) 1000 ppm, alone or + NaSA 800 ppm): 0 A Percent

Compound: O=C([O-])c1ccccc1O.[Na+] [NaSA, sodium salicylate]
- Effect of salicylate on Basagran (bentazon) herbicidal activity (in words) (Xanthi-nc tobacco [1]; tobacco): potentiates Basagran®
- Effect of added salicylate on atrazine herbicidal activity (in words) (Xanthi-nc tobacco [1]; tobacco, apparent 3 days after application, persisted through 6 days): increased atrazine herbicidal activity
- Effect of salicylate on Aatrex Nine-O herbicidal activity (in words) (velvetleaf; velvetleaf): potentiates Aatrex Nine-O®
- Effect of added salicylate on atrazine herbicidal activity (in words) (Xanthi-nc tobacco [2]; darkness): conferred some activity in darkness
- Effect of added salicylate on atrazine herbicidal activity (in words) (Xanthi-nc tobacco [2]; low light): potentiated atrazine herbicidal activity under low light
- Effect of salicylate on atrazine herbicidal activity (in words) (Xanthi-nc tobacco [3]; range of temperatures (15-35 C)): potentiated atrazine herbicidal activity under a range of temperatures
- Percent leaf area affected at 3 days ([4]; NaSA 800 ppm alone): 0 A Percent
